What all share (type): binding
In experiment [1] the target is T1, HeLa cell extract proteins (Homo sapiens, UniProt Q9UJP4).
T1 construct: endogenous in cells; host or cells: HeLa cell extract
T1 sequence (Q9UJP4 1-597): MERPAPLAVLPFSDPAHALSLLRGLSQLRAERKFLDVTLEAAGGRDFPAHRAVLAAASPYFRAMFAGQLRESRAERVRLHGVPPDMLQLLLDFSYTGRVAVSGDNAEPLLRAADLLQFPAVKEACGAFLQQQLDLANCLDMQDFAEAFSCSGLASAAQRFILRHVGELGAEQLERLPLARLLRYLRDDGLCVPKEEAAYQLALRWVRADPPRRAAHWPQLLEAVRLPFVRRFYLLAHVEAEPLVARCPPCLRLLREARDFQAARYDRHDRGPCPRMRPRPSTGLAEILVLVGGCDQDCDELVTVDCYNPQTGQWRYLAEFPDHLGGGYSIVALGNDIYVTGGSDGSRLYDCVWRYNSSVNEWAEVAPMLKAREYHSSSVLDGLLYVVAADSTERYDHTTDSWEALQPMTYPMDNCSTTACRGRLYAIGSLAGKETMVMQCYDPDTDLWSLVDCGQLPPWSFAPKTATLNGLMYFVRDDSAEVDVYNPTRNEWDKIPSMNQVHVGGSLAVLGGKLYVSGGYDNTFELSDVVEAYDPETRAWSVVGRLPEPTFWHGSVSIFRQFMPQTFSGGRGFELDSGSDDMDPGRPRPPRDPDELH

In experiment [2] the target is T2, HeLa cell extract proteins (Homo sapiens, UniProt Q92734).
T2 construct: endogenous in cells; host or cells: HeLa cell extract
T2 sequence (Q92734 whole entry): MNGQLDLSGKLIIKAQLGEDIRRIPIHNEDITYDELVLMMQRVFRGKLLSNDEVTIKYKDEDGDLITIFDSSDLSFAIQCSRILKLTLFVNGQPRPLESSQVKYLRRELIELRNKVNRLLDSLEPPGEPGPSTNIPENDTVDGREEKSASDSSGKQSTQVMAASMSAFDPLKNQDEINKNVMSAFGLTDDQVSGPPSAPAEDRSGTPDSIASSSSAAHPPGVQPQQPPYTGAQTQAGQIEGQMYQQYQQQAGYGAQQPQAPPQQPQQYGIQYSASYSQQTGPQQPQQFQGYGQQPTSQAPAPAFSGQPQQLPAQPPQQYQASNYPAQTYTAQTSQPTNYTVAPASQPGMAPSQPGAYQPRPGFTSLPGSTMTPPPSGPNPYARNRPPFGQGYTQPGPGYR

The target of experiment [3] is T3, HeLa cell extract proteins (Homo sapiens, UniProt P49327).
T3 construct: endogenous in cells; host or cells: HeLa cell extract
T3 sequence (P49327 whole entry): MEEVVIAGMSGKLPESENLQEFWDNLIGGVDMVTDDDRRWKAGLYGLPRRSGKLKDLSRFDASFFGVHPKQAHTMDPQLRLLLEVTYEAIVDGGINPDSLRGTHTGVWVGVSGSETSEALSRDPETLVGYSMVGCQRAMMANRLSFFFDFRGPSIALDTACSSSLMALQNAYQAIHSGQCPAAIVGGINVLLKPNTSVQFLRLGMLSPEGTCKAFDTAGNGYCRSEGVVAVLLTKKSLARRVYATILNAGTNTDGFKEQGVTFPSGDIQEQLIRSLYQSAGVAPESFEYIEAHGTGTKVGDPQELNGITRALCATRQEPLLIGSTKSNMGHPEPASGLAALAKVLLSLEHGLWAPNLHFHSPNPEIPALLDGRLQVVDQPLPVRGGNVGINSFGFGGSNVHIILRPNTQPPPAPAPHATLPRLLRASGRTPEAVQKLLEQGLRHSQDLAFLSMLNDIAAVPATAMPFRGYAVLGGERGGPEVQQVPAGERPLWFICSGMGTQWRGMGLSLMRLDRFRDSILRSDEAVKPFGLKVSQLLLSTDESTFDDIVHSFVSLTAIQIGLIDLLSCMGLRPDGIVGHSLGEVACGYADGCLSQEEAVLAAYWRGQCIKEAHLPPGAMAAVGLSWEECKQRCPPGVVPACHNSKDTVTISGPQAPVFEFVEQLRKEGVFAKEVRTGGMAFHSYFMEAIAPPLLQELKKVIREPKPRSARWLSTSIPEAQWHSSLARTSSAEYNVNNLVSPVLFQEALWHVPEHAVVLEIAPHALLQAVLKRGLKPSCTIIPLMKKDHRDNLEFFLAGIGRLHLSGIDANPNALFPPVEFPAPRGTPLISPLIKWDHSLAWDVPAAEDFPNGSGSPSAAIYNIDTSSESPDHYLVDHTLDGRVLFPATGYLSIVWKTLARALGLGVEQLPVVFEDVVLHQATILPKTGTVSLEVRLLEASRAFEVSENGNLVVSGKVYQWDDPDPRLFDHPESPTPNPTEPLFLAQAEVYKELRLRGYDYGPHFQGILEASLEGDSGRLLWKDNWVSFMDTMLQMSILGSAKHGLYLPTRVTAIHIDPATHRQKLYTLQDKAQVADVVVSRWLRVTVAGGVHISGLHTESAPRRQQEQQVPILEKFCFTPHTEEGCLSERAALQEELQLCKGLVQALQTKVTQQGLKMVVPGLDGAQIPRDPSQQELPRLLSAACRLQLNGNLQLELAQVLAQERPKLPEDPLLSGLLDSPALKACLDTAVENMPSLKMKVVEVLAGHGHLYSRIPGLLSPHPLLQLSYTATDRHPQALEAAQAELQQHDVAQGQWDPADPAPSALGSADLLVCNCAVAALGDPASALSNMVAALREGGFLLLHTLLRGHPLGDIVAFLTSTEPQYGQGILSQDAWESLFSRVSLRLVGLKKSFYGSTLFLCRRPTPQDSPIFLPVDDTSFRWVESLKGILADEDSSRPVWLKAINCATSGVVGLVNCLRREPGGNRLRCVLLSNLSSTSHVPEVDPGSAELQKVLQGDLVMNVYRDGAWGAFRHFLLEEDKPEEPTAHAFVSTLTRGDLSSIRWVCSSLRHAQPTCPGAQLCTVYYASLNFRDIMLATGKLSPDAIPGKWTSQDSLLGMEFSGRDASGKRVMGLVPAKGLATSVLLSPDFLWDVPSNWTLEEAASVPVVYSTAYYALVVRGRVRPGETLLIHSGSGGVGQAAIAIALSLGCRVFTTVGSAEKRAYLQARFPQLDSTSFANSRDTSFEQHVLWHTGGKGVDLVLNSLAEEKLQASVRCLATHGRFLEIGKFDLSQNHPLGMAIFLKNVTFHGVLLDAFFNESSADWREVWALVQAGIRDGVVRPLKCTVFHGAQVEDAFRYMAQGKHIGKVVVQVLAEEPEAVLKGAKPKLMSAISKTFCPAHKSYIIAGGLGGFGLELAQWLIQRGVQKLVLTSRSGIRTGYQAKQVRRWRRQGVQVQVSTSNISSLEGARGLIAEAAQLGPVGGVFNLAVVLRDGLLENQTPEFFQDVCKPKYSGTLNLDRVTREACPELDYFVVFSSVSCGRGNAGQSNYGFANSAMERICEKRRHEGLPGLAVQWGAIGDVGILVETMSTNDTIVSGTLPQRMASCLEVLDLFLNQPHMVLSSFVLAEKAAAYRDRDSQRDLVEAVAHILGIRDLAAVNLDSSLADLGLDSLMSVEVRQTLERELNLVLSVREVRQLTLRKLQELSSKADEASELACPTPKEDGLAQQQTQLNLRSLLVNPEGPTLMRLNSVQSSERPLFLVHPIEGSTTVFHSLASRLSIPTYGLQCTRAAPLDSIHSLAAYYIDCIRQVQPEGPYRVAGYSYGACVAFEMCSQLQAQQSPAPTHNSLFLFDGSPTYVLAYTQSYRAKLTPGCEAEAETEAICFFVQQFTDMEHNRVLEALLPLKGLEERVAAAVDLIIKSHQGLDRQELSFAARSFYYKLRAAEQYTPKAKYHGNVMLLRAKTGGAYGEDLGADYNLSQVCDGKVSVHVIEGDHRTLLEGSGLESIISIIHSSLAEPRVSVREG

Experiment [4] concerns the target T4, HeLa cell extract proteins (Homo sapiens, UniProt Q13310).
T4 construct: endogenous in cells; host or cells: HeLa cell extract

Experiment [5] addresses T5, HeLa cell extract proteins (Homo sapiens, UniProt Q9NUI1).
T5 construct: endogenous in cells; host or cells: HeLa cell extract
T5 sequence (Q9NUI1 1-292): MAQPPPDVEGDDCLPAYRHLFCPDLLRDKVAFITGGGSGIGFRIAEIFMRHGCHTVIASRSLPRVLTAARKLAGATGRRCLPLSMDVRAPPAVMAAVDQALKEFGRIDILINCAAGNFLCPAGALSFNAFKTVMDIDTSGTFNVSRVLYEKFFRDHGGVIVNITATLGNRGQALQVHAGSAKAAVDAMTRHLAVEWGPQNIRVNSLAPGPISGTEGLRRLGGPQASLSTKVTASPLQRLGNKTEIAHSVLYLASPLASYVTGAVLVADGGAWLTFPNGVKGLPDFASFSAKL

Experiment [6] has as its target T6, HeLa cell extract proteins (Homo sapiens, UniProt Q9H857).
T6 construct: endogenous in cells; host or cells: HeLa cell extract
T6 sequence (Q9H857 1-520): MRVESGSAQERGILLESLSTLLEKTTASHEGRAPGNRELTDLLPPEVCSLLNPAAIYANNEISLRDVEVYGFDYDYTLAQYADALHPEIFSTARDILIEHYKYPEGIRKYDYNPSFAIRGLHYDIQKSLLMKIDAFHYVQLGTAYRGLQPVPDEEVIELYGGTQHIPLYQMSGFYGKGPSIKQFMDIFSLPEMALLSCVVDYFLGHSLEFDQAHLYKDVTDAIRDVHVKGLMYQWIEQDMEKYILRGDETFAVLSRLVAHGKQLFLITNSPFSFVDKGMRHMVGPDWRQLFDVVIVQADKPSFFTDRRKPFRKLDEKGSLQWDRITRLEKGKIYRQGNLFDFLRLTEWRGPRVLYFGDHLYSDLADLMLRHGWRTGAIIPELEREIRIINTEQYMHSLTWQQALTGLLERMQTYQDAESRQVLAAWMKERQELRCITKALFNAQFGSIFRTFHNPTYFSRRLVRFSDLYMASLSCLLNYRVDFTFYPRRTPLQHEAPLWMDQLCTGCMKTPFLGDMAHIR

In experiment [7] the target is T7, HeLa cell extract proteins (Homo sapiens, UniProt O00299).
T7 construct: endogenous in cells; host or cells: HeLa cell extract

For experiment [8], the target named is T8, HeLa cell extract proteins (Homo sapiens, UniProt Q6PJT7).
T8 construct: endogenous in cells; host or cells: HeLa cell extract
T8 sequence (Q6PJT7 1-736): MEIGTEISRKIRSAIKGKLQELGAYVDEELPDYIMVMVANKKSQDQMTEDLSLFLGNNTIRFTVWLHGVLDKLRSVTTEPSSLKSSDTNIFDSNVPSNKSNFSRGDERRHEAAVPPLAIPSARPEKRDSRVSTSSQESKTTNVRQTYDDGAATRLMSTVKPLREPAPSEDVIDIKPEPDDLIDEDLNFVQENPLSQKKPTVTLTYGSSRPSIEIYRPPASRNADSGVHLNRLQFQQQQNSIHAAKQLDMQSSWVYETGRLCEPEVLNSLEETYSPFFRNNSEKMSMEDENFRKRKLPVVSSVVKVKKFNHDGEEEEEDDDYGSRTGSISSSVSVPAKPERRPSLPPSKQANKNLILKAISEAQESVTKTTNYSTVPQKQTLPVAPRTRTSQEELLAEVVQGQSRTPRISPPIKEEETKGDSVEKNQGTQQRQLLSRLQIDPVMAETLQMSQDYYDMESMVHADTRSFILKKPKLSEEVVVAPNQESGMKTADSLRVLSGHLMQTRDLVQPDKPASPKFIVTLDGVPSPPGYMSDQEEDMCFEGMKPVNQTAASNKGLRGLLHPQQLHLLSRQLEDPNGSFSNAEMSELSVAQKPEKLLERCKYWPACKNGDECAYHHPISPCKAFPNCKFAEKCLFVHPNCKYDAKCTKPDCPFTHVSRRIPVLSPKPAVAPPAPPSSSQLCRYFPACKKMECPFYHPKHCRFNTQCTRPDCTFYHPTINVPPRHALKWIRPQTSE

In experiment [9] the target is T9, HeLa cell extract proteins (Homo sapiens, UniProt P13995).
T9 construct: endogenous in cells; host or cells: HeLa cell extract
T9 sequence (P13995 36-350): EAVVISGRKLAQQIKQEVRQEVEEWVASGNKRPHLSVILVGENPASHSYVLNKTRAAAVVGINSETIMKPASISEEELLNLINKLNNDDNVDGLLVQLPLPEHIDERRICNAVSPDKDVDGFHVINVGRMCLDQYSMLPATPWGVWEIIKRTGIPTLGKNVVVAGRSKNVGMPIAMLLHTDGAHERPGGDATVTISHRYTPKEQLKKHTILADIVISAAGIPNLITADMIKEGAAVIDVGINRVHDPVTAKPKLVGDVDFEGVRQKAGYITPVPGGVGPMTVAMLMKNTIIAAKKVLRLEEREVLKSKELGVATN

Like-named read-outs stand apart in the source and are kept apart here.

T4 sequence (Q13310 whole entry): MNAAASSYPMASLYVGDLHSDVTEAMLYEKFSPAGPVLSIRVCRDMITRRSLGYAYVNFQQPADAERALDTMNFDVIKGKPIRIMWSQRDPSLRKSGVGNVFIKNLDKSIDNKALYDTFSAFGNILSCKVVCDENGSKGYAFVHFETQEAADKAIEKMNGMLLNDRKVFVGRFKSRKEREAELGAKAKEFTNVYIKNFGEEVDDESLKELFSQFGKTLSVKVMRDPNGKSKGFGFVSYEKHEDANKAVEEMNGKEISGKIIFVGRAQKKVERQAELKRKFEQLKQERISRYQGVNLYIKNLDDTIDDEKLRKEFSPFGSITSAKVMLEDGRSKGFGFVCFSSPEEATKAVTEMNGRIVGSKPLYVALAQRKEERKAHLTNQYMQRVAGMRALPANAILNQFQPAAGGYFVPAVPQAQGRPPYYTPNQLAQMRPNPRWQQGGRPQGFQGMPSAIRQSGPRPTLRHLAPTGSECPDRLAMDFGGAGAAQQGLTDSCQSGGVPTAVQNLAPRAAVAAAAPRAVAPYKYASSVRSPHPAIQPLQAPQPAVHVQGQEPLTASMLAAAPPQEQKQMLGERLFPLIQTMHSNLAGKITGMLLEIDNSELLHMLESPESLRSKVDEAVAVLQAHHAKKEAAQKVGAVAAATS

With `Nc1nc2c(c(=O)[nH]1)N(C=O)C(CNc1ccc(C(=O)N[C@@H](CCC(=O)O)C(=O)O)cc1)CN2` (stereo partly drawn) [LEU, leucovorin], the “fold changes relative to vehicle control” value in experiment [1] (HeLa, protein KLHL21) was 1.02; in [2] (HeLa, captured protein TFG), 1.01; in experiment [3] (HeLa, captured protein FASN), 1.13; in [4] (HeLa, protein PABPC4) it was 0.83; in experiment [5] (HeLa, protein DECR2), 1.02; in experiment [6] (HeLa, captured protein NT5DC2) it was 0.94. The “fold changes relative to vehicle control” value came out at 1.09 in [7] (HeLa, protein CLIC1); 1 in [8] (HeLa, captured protein ZC3H14); 0.7 in experiment [9] (HeLa, captured protein MTHFD2).

For `Nc1nc2[nH]cc(CCc3ccc(C(=O)N[C@@H](CCC(=O)O)C(=O)O)cc3)c2c(=O)[nH]1` [PTX, pemetrexed], the “fold changes relative to vehicle control” value stood at 0.95 in experiment [1]; 1.05 in experiment [2]; 1.09 in [3]; 0.93 in experiment [4]; 0.89 in experiment [5]; 0.91 in [6]. The figures for the “fold changes relative to vehicle control” value in [7], in experiment [8] and in experiment [9] were 1.26, 0.95 and 1.05, respectively.

For `CCCCCCOc1ccc(Cc2cnc(N)nc2N)cc1` [compound 1], the “fold changes relative to vehicle control” value in experiment [1] (HeLa, protein KLHL21) was found to be 1.06; in [2] (protein TFG, HeLa), 0.96; in experiment [3] (protein FASN, HeLa), 1.07; in [4] (captured protein PABPC4, HeLa), 0.86; in experiment [5] (HeLa, protein DECR2), 1; in [6] (protein NT5DC2, HeLa) it was 1.05. The “fold changes relative to vehicle control” value in experiment [7] (protein CLIC1, HeLa) is on record as 1.21; in [8] (captured protein ZC3H14, HeLa) it was 0.83; in experiment [9] (protein MTHFD2, HeLa) it was 0.09.

For the compound `CCCCCCOc1cccc(Cc2cnc(N)nc2N)c1` [compound 2], the “fold changes relative to vehicle control” value in [1] (HeLa, protein KLHL21) was determined as 1.01; in [2] (protein TFG, HeLa) it was 1.16; in experiment [3] (protein FASN, HeLa), 1.25; in experiment [4] (captured protein PABPC4, HeLa) it was 1.2; in experiment [5] (HeLa, protein DECR2), 1.05; in experiment [6] (protein NT5DC2, HeLa), 0.91. For the same compound, the “fold changes relative to vehicle control” value in experiment [7] (protein CLIC1, HeLa) turned out to be 2.13; in experiment [8] (captured protein ZC3H14, HeLa), 0.94; in experiment [9] (protein MTHFD2, HeLa), 0.95.

Consider `Nc1nc2cccc(-c3ccccc3)c2n1Cc1ccc(Cl)c(Cl)c1` [compound 3], for which the “fold changes relative to vehicle control” value in experiment [1] (HeLa, protein KLHL21) turned out to be 1.04; in [2] (protein TFG, HeLa), 1.02; in experiment [3] (protein FASN, HeLa), 1.17; in experiment [4] (captured protein PABPC4, HeLa), 0.94; in [5] (HeLa, protein DECR2) it was 0.99; in [6] (protein NT5DC2, HeLa) it was 1. Further, the “fold changes relative to vehicle control” value in experiment [7] (protein CLIC1, HeLa) amounted to 0.87; in experiment [8] (captured protein ZC3H14, HeLa) it was 0.96; in [9] (protein MTHFD2, HeLa) it was 1.03.

For `NCCOCCOCC(=O)Nc1nc2ncc(CNc3ccc(C(=O)NC(CCC(=O)O)C(=O)O)cc3)nc2c(=O)[nH]1` (stereo not drawn) [compound 6], the “fold changes relative to vehicle control” value in [1] (HeLa, protein KLHL21) amounted to 1; in [2] (HeLa, captured protein TFG) it was 1.01; in [3] (HeLa, captured protein FASN), 1.2; in [4] (HeLa, protein PABPC4), 1.06; in experiment [5] (HeLa, protein DECR2), 0.94; in [6] (HeLa, captured protein NT5DC2), 0.96. For the same compound, the “fold changes relative to vehicle control” value came to 1.44 in [7] (HeLa, protein CLIC1); 0.99 in experiment [8] (HeLa, captured protein ZC3H14); 1.06 in experiment [9] (HeLa, captured protein MTHFD2).

Regarding `NCCCNc1ccc(C(=O)NC(CCC(=O)O)C(=O)O)cc1` (stereo not drawn) [compound 7], the “fold changes relative to vehicle control” value in [1] (HeLa, protein KLHL21) is listed as 0.97; in experiment [2] (HeLa, captured protein TFG), 1.06; in [3] (HeLa, captured protein FASN), 1.2; in experiment [4] (HeLa, protein PABPC4), 1; in experiment [5] (HeLa, protein DECR2) it was 0.93; in [6] (HeLa, captured protein NT5DC2) it was 0.97. Also, the “fold changes relative to vehicle control” value in experiment [7] (HeLa, protein CLIC1) was determined as 0.99; in [8] (HeLa, captured protein ZC3H14), 1.04; in [9] (HeLa, captured protein MTHFD2) it was 1.02.

The values above are taken from publication PMC6199744, “Development of Chemical Proteomics for the Folateome and Analysis of the Kinetoplastid Folateome” (ACS Infectious Diseases, 2018).
